In PubChem BioAssay (NCI) one finds GI50 and TGI data, which are given here for 10 compounds.

Some test systems named below: BT-549 breast; 786-0 renal; NCI-H460 lung; RXF 393 renal; MDA-MB-435; SF-295 CNS; CCRF-CEM leukemia; HOP-92 NSCLC; EKVX NSCLC; HT29 colon.
What all share (assay): NCI-60 cell line screen, 48 h

Molecules are shown by their SMILES. Several values for one entry are separate records, joined by “and”; a condition that tells them apart may be missing. Equal entries are not always repeated.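 Each compound was tested at five concentrations against cells in 96-well plates for 48 hours. Abbreviation: GI50, concentration required for 50% inhibition of growth. TGI: concentration producing complete growth inhibition.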

Take `Nc1ncnc2c1c(C(F)(F)F)cn2[C@@H]1O[C@H](CO)[C@@H](O)[C@H]1O`: the GI50 in the assay on BT-549 breast was 0.192 µM; in the assay with 786-0 renal, 2.15 µM; with NCI-H460 lung, 0.262 µM; in the assay on RXF 393 renal, 0.237 µM; in the assay with MDA-MB-435, 0.066 µM; in the assay on SF-295 CNS it was 0.442 µM. The figures for the GI50 with CCRF-CEM leukemia, with HOP-92 NSCLC and in the assay on EKVX NSCLC were 0.102 µM, 0.222 µM and 1.23 µM, respectively. For the same compound, the TGI was 3.44 µM in the assay on BT-549 breast; > 100 µM in the assay on 786-0 renal; > 43.6 µM in the assay with NCI-H460 lung; 1.67 µM with RXF 393 renal; 2.08 µM in the assay on MDA-MB-435; > 23.3 µM in the assay on SF-295 CNS. In addition, the TGI with CCRF-CEM leukemia is > 100 µM; with HOP-92 NSCLC it was 6.62 µM; in the assay with EKVX NSCLC, > 27.3 µM.

Consider `CCOC(=O)c1sc(-c2ccc(OS(=O)(=O)c3cccs3)c(C=O)c2)nc1C`, for which the GI50 is 1.68 µM with BT-549 breast; 1.86 µM with 786-0 renal; 2.22 µM in the assay on NCI-H460 lung; 1.59 µM in the assay with MDA-MB-435; 1.72 µM with SF-295 CNS; 2.16 µM in the assay on CCRF-CEM leukemia. In addition, the results for the GI50 in the assay with HOP-92 NSCLC and in the assay with EKVX NSCLC were 1.36 µM and 1.88 µM, respectively. The TGI came to 3.19 µM in the assay on BT-549 breast; 4.54 µM in the assay with 786-0 renal; 4.96 µM with NCI-H460 lung; 3.05 µM in the assay with MDA-MB-435; 3.36 µM with SF-295 CNS; 5.38 µM in the assay on CCRF-CEM leukemia. The TGI in the assay with HOP-92 NSCLC amounted to 4.24 µM; with EKVX NSCLC, 5.4 µM.

`C(=N\Nc1nnc2c(n1)[nH]c1ccccc12)/c1cccnc1`: the TGI in the assay on BT-549 breast, in the assay with 786-0 renal, in the assay with HT29 colon, in the assay with NCI-H460 lung, in the assay on RXF 393 renal and in the assay with MDA-MB-435 was > 100 µM each time. For the same compound, the TGI in the assay with SF-295 CNS, in the assay on HOP-92 NSCLC and with EKVX NSCLC was > 100 µM throughout.

On to `CN(C)c1ccc(/C=C2\C[C@H]3[C@@H]4CC=C5C[C@@H](N6CCCC6)CC[C@]5(C)[C@H]4CC[C@]3(C)[C@H]2O)cc1`, for which the GI50 is 17.4 µM in the assay on BT-549 breast; 1.84 µM with 786-0 renal; 3.17 µM with HT29 colon; 2.37 µM with NCI-H460 lung; 3.47 µM in the assay on RXF 393 renal; 8.18 µM in the assay with SF-295 CNS. Moreover, the GI50 in the assay with EKVX NSCLC was 3.67 µM. The TGI was 9.72 µM and 53.1 µM in the assay with BT-549 breast; 1.29 µM and 3.73 µM in the assay with 786-0 renal; 3.54 µM and 15.1 µM in the assay with HT29 colon; 5.08 µM and 5.52 µM with NCI-H460 lung; 2.65 µM and 12.3 µM with RXF 393 renal; 5.37 µM with MDA-MB-435. Also, the TGI in the assay with SF-295 CNS was 2.99 µM and 23.1 µM; in the assay on HOP-92 NSCLC it was 4.98 µM; in the assay with EKVX NSCLC it was 7.72 µM and 26.4 µM.

In the case of `Cc1ccc2c(c1)C(=O)c1c-2n(CCCN)c(=O)c2cc([N+](=O)[O-])ccc12`, the GI50 in the assay on BT-549 breast is 0.746 µM; with 786-0 renal it was 0.0576 µM; in the assay with NCI-H460 lung, 0.0349 µM; with RXF 393 renal, 0.627 µM; with MDA-MB-435, 0.413 µM; with SF-295 CNS it was 0.12 µM. Further, the GI50 was 0.00683 µM in the assay on CCRF-CEM leukemia, 0.435 µM with HOP-92 NSCLC and 0.917 µM in the assay with EKVX NSCLC. In addition, the TGI amounted to 1.57 µM in the assay on BT-549 breast; 0.208 µM in the assay on 786-0 renal; 0.629 µM in the assay on NCI-H460 lung; 1.31 µM in the assay with RXF 393 renal; 1.09 µM with MDA-MB-435; 0.663 µM in the assay with SF-295 CNS. Besides, the TGI with CCRF-CEM leukemia was determined as 0.0559 µM; in the assay with HOP-92 NSCLC it was 1.18 µM; with EKVX NSCLC, 2.22 µM.

Regarding `O=C(c1ccccc1)C1C(C(=O)c2ccccc2)N1Cc1ccccc1` (stereo not given), the TGI is 72 µM in the assay with BT-549 breast; > 100 µM in the assay on 786-0 renal; > 100 µM with HT29 colon; > 100 µM in the assay with NCI-H460 lung; 68.3 µM in the assay on MDA-MB-435; > 100 µM with SF-295 CNS. The TGI in the assay on CCRF-CEM leukemia, with HOP-92 NSCLC and in the assay on EKVX NSCLC was > 100 µM throughout.

For `S=c1nc(-c2nc(=S)[nH]c3c2CCCCCCCCCC3)c2c([nH]1)CCCCCCCCCC2`, the TGI in the assay on BT-549 breast, in the assay on 786-0 renal, with HT29 colon, in the assay with NCI-H460 lung, in the assay with RXF 393 renal and in the assay on MDA-MB-435 was > 100 µM in each case. Moreover, the TGI in the assay with SF-295 CNS, with HOP-92 NSCLC and in the assay on EKVX NSCLC was > 100 µM in each case.

Turning to `O=c1[nH]cc(CS(=O)(=O)Cc2c[nH]c(=O)[nH]c2=O)c(=O)[nH]1`, the TGI in the assay on BT-549 breast, in the assay with 786-0 renal, in the assay on HT29 colon, with NCI-H460 lung, with RXF 393 renal and with MDA-MB-435 was > 100 µM throughout. Also, the TGI with SF-295 CNS, with HOP-92 NSCLC and with EKVX NSCLC was > 100 µM in each case.

Consider `CC(=O)Oc1ccc(OC(C)=O)c2ccccc12`, for which the GI50 in the assay on BT-549 breast was 13.5 µM; in the assay with 786-0 renal, 16.6 µM; with HT29 colon it was 34.6 µM; in the assay with NCI-H460 lung, 29.1 µM; in the assay on RXF 393 renal, 7.57 µM; in the assay with MDA-MB-435, 3.86 µM. Moreover, the results for the GI50 in the assay with SF-295 CNS, in the assay with HOP-92 NSCLC and with EKVX NSCLC were 20.9 µM, 1.49 µM and 10.4 µM, respectively. Further, the TGI was 26.6 µM in the assay with BT-549 breast; 30.5 µM in the assay on 786-0 renal; > 100 µM with HT29 colon; > 100 µM with NCI-H460 lung; 20.2 µM in the assay on RXF 393 renal; 15 µM with MDA-MB-435. The TGI with SF-295 CNS was > 100 µM; in the assay on HOP-92 NSCLC, 3.05 µM; with EKVX NSCLC, 24.7 µM.

For the compound `COc1ccc(/C=C/c2c(C(=O)/C=C/c3ccc(Cl)cc3)c(C)nc3ccccc23)cc1`, the GI50 in the assay with BT-549 breast is 1.83 µM; in the assay with 786-0 renal it was 1.82 µM; in the assay with HT29 colon, 1.61 µM; in the assay with NCI-H460 lung it was 2.13 µM; in the assay on RXF 393 renal, 1.78 µM; with MDA-MB-435, 2.12 µM. For the same compound, the GI50 with SF-295 CNS was 1.72 µM; in the assay on CCRF-CEM leukemia, 2.03 µM; with EKVX NSCLC, 1.55 µM. Besides, the TGI turned out to be 3.8 µM in the assay on BT-549 breast; 3.4 µM in the assay with 786-0 renal; 6.05 µM in the assay on HT29 colon; 5.61 µM in the assay with NCI-H460 lung; 3.34 µM in the assay with RXF 393 renal; 4.67 µM in the assay on MDA-MB-435. Moreover, the values for the TGI in the assay on SF-295 CNS, in the assay on CCRF-CEM leukemia and in the assay with EKVX NSCLC were 3.61 µM, > 100 µM and 3.49 µM, respectively.
